From patent US12377112B2, “Methods of treating neurocognitive disorders, chronic pain and reducing inflammation” (priority 2019, dated 2025)
Marks after values point to notes of the source that are not given here.

Tests used:
Wistar-Kyoto (WKY) rats = assay: Sleep-wake amounts (EEG/EMG) in Wistar-Kyoto rats; assay type: in vivo, rat; details: 5 mg/kg and 10 mg/kg s.c.
Text: Since WKY rats show decreased sensitivity to conventional monoamine-based antidepressant treatment, they are used as a model of TRD.
Male (WKY) rats (200-250 g) were implanted with electroencephalography (EEG) and electromyography (EMG) electrodes and telemetry transmitters under general anaesthesia (2-5% isoflurane in Oxygen). A telemetry transmitter (HD-502, Data Sciences International) was placed in the peritoneal cavity, and the wires of the transmitter were passed through the muscle wall and then sub-dermally to the scalp to act as EEG/EMG electrodes. Two bore holes were made in the skull (Fronto-parietal coordinates; Bregma +2 mm anterior, midline +1.0 mm lateral and Lambda 0 mm, +1.5 mm lateral). The positive EEG electrode was attached to the anterior bore hole and the negative EEG electrode to the posterior bore hole. Both electrodes were secured in place using a suitable adhesive agent (Cyanoacrylate gel, RS components). […]
Animals were maintained on a 12/12 hour light dark cycle. On study days, the animals were placed in recording boxes and EEG/EMG, locomotor activity, as well as body temperature were recorded for 0.5 h before and 24 h after each dosing. […]
The subsequent EEG/EMG recordings were automatically scored as wake, non-REM (NREM) sleep, or REM sleep in 10 second epochs using SleepSign (Kissei Comtec, Japan). […]

[1] = test system: rat primary hippocampal culture, Aβ 1-40 intoxication; assay: Fibrillated amyloid-β damage on cultures of hippocampal neurons (MTT viability); assay type: cell-based
Text: Amyloid-β toxicity is a hallmark of Alzheimer's disease, and is also frequently seen in multiple sclerosis lesions. In this study, the neuroprotective effect of psilocin on amyloid-β-induced neuronal death in rat primary hippocampal culture was investigated.
Female Wistar rats of 19 days gestation were killed by cervical dislocation and foetuses were removed from the uterus. Their brains were placed in ice-cold medium of Leibovitz (L15, Gibco, Fisher bioblock, France). Hippocampi were carefully removed, and the hippocampal neurons were dissociated by trypsinization for 30 min at 37° C. (trypsin-EDTA, Gibco) in presence of 0.1 mg/ml DNAse I (Roche, France). […] Viable cells were counted in a Neubauer cytometer using the trypan blue exclusion test (Sigma). […]
Psilocin was added to cells 10 minutes or 48 hours before amyloid-β intoxication. Neuronal viability was assessed 48 hours after amyloid-β intoxication. […]
Two days after Aβ exposure (day 11), cell viability was assessed by a measurement of cell metabolic activity using the CellTiter96® non-radioactive kit (MTT, Promega, Charbonnières, France). […] Solubilization solution was added and visible wavelength absorbance data was collected 4 hours later using a 96-well plate reader at 570 nm and 630 nm for non-specific background (Multiskan EX, Thermo Fisher).

[2] = test system: human iPSC-derived neurons; assay: Neurite outgrowth in human iPSC-derived neurons; assay type: cell-based
Procedure: The neurotrophic effect of psilocin was tested on human iPSC-derived neuronal cultures. Two parameters were evaluated: the average number of neurites per neuron, and the average total neurite length per neuron. Briefly, neurons establish physical connections between them in order to create neuronal networks.
Cryopreserved iCell neurons were thawed and plated according to Cellular Dynamics International instructions. The pharmacological treatments were carried out 2 hours after the cell plating. The cells were maintained in a humidified incubator at 37° C. in 5% CO2-95% air atmosphere.
Stock solutions of psilocin were prepared in 100% DMSO at 1000 times the final concentration in the culture media (1000× concentration).
For each culture, each condition was performed in sextuplet.
Each plate contained two types of other experimental conditions: the control condition treated with vehicle and the culture treated with Brain-derived neutrophic factor (BDNF).
Plate 1 and 2: Cells were treated with psilocin at 3 different concentrations: 0.03 μM, 0.1 μM, 0.3 μM. The stock solution was prepared fresh in 100% DMSO at 10 mM. BDNF was used in parallel.
Ten days after plating, cultures were fixed with paraformaldehyde in PBS (phosphate buffered saline) (4%, Sigma). Then, cells were successively permeabilized, saturated with PBS (containing 3% of BSA) and incubated for 1 h with anti-beta III tubulin antibody (Sigma) at 1/10 000 in PBS containing 0.5% of BSA (bovine serum albumin). Cells were first washed and were then incubated 1 h with goat anti-mouse antibody coupled with AF488 (Invitrogen A11001) diluted at 1/1000 in PBS containing 0.5% of BSA. Finally, nuclei are stained with DAPI 1 mg/ml at 1/1000 in PBS containing 0.5% of BSA. After rinsing them with PBS, the plate was filmed and neurite networks were examined and analyzed using High-Content Screening (CellInsight, Thermo Scientific).
The evaluation of neurite outgrowth was performed using the average number of neurites per neuron and the average of total neurite length per neuron, using Sholl method (Bird & Cuntz, 2019). (See FIG. 59A, FIG. 59B, FIG. 60A, FIG. 60B).

[3] = test system: rat embryo mesencephalic cells, 6-OHDA; assay: 6-OHDA damage on mesencephalic neuronal cultures (TH positive neurons); assay type: cell-based; details: 1 μM, 3 μM and 10 μM, one hour prior to 15 μM 6-OHDA
Procedure: The neuroprotective effect of psilocin against 6-OHDA-mediated injury on mesencephalic neuronal cultures was investigated.
A primary culture of rat embryo mesencephalic cells was plated on a 96-well plate. The cells were maintained at 37° C. in 5% CO2. Half of the medium was changed on day 2.
On day 6, the culture medium was removed and replaced by media containing psilocin (0.03 μM, 0.1 μM, 0.3 μM, 1 μM, 3 μM, or 10 μM), a negative control (saline vehicle, labelled control in FIG. 10), or a positive control (brain-derived neurotrophic factor (BDNF) and glial cell-derived neurotrophic factor (GDNF))). After one hour, 15 μM 6-OHDA was added for 48 hours.
On day 8, immunodetection was used to determine the number of tyrosine hydroxylase positive neurons.
Neuronal viability was assessed 48 hours after 6-OHDA intoxication and measured by the number of TH (tyrosine hydroxylase) positive neurons. The compound 6-OHDA kills specifically dopaminergic neurons, mimicking the cellular pathophysiology of Parkinson's disease. […] The result for each well was expressed as a percentage by setting the density of tyrosine hydroxylase positive cells under control conditions to 100%. The result for each condition was reported as mean (±S.E.M.) from 4 independent cultures.

male C57BL/6 mice = assay: Chronic constriction injury (CCI) model of neuropathic pain, von Frey paw withdrawal threshold; assay type: in vivo, mouse
Procedure: To determine whether psilocybin may alleviate chronic neuropathic pain, various doses of psilocybin were tested in a mouse model of chronic constriction injury (CCI).
Male C57BL/6 mice (age 6-7 weeks, source: Charles River UK) were housed in standard caging in groups of 2-4, with free access to food (5CR4, Purina) and water (except during placement in the test box) on a 12/12 light/dark cycle.
All animals underwent behavioral testing of mechanical allodynia on three consecutive days (Day −2, Day−1 and Day 0) prior to surgery in order to determine the baseline withdrawal thresholds. Briefly, Static mechanical (tactile) allodynia was assessed by measurement of withdrawal threshold using calibrated (force; g) von-Frey monofilaments (Touch-Test Sensory Evaluator; Scientific Marketing Associates) applied to the plantar surface of the hind-paw. The animals were placed in individual Perspex boxes on a raised metal mesh for 30-40 minutes before the test. A series of graduated von Frey hairs (0.07, 0.16, 0.4, 0.6 and 1 g) was applied in sequence with a protocol of 1 second on 1 second off, repeated 10 times. Each hair was applied perpendicularly to the center of the ventral surface of the paw until it slightly bends. The force applied to the hind-paw of the animal to induce 5 responses out of 10 trials was recorded as paw withdrawal threshold (PWT). Three baseline paw withdrawal thresholds were taken on ipsilateral paws. The mean of the last two readings used as the baseline withdrawal threshold.
Subsequently, surgery was performed under anesthesia (Isoflurane mixed with oxygen, 3:1, 2 L/min) to tie three loose ligatures of prolene (7-0, Ethicon) around the sciatic nerve, with 1 mm spacing between each. The nerve was then returned below the muscle layer and the wound closed using absorbable sutures (Vicryl).
Following recovery from surgery, Von Frey assessment of mechanical allodynia was taken on days 19 and 22. Animals were then ranked and randomized (based on a Latin square design) to treatment groups according to the percentage change (compared to pre-surgery baseline) of the mean mechanical withdrawal threshold observed on days 19 and 22. Only those animals showing a PWT percentage change of >50% from pre-surgery baseline were included in the study.
On day 23, the animals were dosed with psilocybin (1, 3 or 10 mg/kg by intraperitoneal injection) or vehicle (10 mL/kg by intraperitoneal injection). Nerve pain medication Pregabalin (15 mg/kg administered orally) was also used as a positive control. Allodynia was then assessed at 0.5, 4 and 24 hours post-treatment timepoint (PTT).

For CNC1(c2ccccc2Cl)CCCCC1=O (centres unmarked) [ketamine], the “Amount of REM sleep” value (Wistar-Kyoto (WKY) rats) was “decreased the amount of REM sleep in a dose-dependent manner”.

CN(C)CCc1c[nH]c2cccc(O)c12 [psilocin] was tested, and the “Neuronal viability after amyloid-β” value ([1]; 10 μM, applied 10 minutes prior to amyloid-β) was “increased neuronal viability”, the “Neuronal viability after amyloid-β” value ([1]; 0.3, 1, 3 and 10 μM, applied 48 hours prior to amyloid-β) was “increased neuronal viability” and the “Average lengths of neurites” value ([2]; 0.03 μM, treated at Day 0) was “significant increases”. The “Average length of neurites” value ([2]; 0.03 μM, treated at Day 3) was “increase”, the “Number of neurites per neurons” value ([2]; 0.03 μM, treated at Day 3) was “increase” and the Length of neurites ([2]; 0.1 μM) was “increased”. The “Neuronal viability (TH positive neurons) after 6-OHDA” value [3] was “increased neuronal viability”.

CC(C)C[C@H](CN)CC(=O)O [pregabalin, reference compound] was tested, and the “Force-induced paw withdrawal, mean” value (male C57BL/6 mice; 15 mg/kg PO group, D19-22 Neuropathic baseline (before dosing)) was 0.13 g, the “Force-induced paw withdrawal, mean” value (male C57BL/6 mice; 15 mg/kg PO group, D-2 D-1 Baseline (before surgery and dosing)) was 0.67 g and the “Force-induced paw withdrawal, mean” value (male C57BL/6 mice; 15 mg/kg PO, D23 0.5 hours PTT) was 0.19 g. The “Force-induced paw withdrawal, mean” value (male C57BL/6 mice; 15 mg/kg PO, D23 4 hours PTT) was 0.46* g, the “Force-induced paw withdrawal, mean” value (male C57BL/6 mice; 15 mg/kg PO, D24 24 hours PTT) was 0.16 g and the “Paw withdrawal threshold vs neuropathic baseline” value (male C57BL/6 mice; 15 mg/kg orally, 4 hours) was “significant increase”.
